Data reported in article PMC12153356, “An antisense oligomer conjugate with unpredicted bactericidal activity against Fusobacterium nucleatum” (mBio, 2025).

Assays:
[1] = test system: F. nucleatum subsp. nucleatum ATCC 23726 (FNN23); assay: Determination of bactericidal effect by CFU spot assay; type: cell-based, Fusobacterium nucleatum subsp. nucleatum ATCC 23726; details: 10 µM, 1 × 10^5 CFU/mL in MHB, spotting on BHI agar plates, up to 96 h; three replicates
Method: To investigate the bactericidal effects of PNAs an o.n. culture of FNN23 grown in ColB was diluted 1:50 in fresh ColB and grown to OD600 0.5. This culture was then diluted 1:2,500 to 1 × 10^5 CFU/mL in MHB, and 190 µL of the culture was dispensed into a transparent 96-well plate (Nunc, Thermo Fischer Scientific) together with 10 µL of respective 20× PNA stock or water and incubated at 37°C with 237 cpm shaking every 20 min. At the respective time points, 100 µL was taken out of the well, a 1:10 serial dilution series was prepared with 900 µL anoxic 1× PBS, and 5 µL of each dilution was spotted on BHI plates for CFU determination. Plates were incubated for 3 days at 37°C before taking out the plates of the anaerobic chamber for CFU counting.

[2] = test system: F. nucleatum subsp. animalis 7_1 (FNA); assay: Growth inhibition assay; type: cell-based, Fusobacterium nucleatum subsp. animalis 7_1; details: 10 µM, MHB, 1 × 10^5 CFU/mL input, three replicates
From the text: (§1) The following fusobacterial strains were used in this study: Fusobacterium nucleatum subsp. nucleatum ATCC 23726 (FNN23) acquired from the American Type Culture Collection (ATCC), F. nucleatum subsp. nucleatum ATCC 25586 (FNN25), F. nucleatum subsp. vincentii ATCC 49256 (FNV), and F. nucleatum subsp. polymorphum ATCC 10953 (FNP) acquired from the German Collection of Microorganisms and Cell Culture (DSMZ), F. nucleatum subsp. animalis 7_1 (FNA) and F. periodonticum 2_1_31 (FPE) both received as a kind gift from E. Allen-Vercoe (University of Guelph, Canada). All strains were routinely grown at 37°C in 80:10:10 (N2:H2:CO2) anaerobic conditions on 2% agar supplemented BHI plates (BHI, 1% [wt:vol] dried yeast extract, 1% [vol:vol] 50% sterile-filtered glucose solution, 5 µg/mL of hemin; 1% [vol:vol] fetal bovine serum) from frozen 20% glycerol stocks kept at −80°C. For liquid growth, the strains were cultured in Columbia broth (ColB; BD Difco). Precultures were prepared 24 h before inoculating the working culture at a 1:50 dilution in fresh ColB until OD600 0.5 was reached. Cultures were then diluted in non-cation adjusted Mueller-Hinton Broth (MHB, BD Difco) to the desired CFU/mL number. P. gingivalis (DSM 20709) was purchased from DSMZ and grown at 37°C in anaerobic conditions as mentioned above on 2% agar supplemented BHI+ plates (BHI, 1% [wt:vol] dried yeast extract, 1% [vol:vol] 50% sterile filtered glucose solution, 5 µg/ml of hemin; 10% [vol:vol] fetal bovine serum; and 1 µg/mL vitamin K3) for 4 days. […]
(§2) To determine the MIC value, broth microdilutions were performed according to the standard protocol with some modifications ([119]). […] Bacterial growth was monitored by measuring OD600 every 20 min with constant shaking in a plate reader (Biotek) under the normal atmospheric environment or positioned in the anaerobic chamber with double orbital shaking every 20 min prior to each measurement with 237 cpm at 37°C for 120 h.

[3] = test system: F. nucleatum subsp. vincentii ATCC 49256 (FNV); assay: Growth inhibition assay; type: cell-based, Fusobacterium nucleatum subsp. vincentii ATCC 49256; details: 10 µM, MHB, 1 × 10^5 CFU/mL input, three replicates
From the text: (§3) The following fusobacterial strains were used in this study: Fusobacterium nucleatum subsp. nucleatum ATCC 23726 (FNN23) acquired from the American Type Culture Collection (ATCC), F. nucleatum subsp. nucleatum ATCC 25586 (FNN25), F. nucleatum subsp. vincentii ATCC 49256 (FNV), and F. nucleatum subsp. polymorphum ATCC 10953 (FNP) acquired from the German Collection of Microorganisms and Cell Culture (DSMZ), F. nucleatum subsp. animalis 7_1 (FNA) and F. periodonticum 2_1_31 (FPE) both received as a kind gift from E. Allen-Vercoe (University of Guelph, Canada). All strains were routinely grown at 37°C in 80:10:10 (N2:H2:CO2) anaerobic conditions on 2% agar supplemented BHI plates (BHI, 1% [wt:vol] dried yeast extract, 1% [vol:vol] 50% sterile-filtered glucose solution, 5 µg/mL of hemin; 1% [vol:vol] fetal bovine serum) from frozen 20% glycerol stocks kept at −80°C. For liquid growth, the strains were cultured in Columbia broth (ColB; BD Difco). […]
as §2

[4] = test system: F. periodonticum 2_1_31 (FPE); assay: Growth inhibition assay; type: cell-based, Fusobacterium periodonticum 2_1_31; details: 10 µM, MHB, 1 × 10^5 CFU/mL input, three replicates
From the text: as §1, §2

[5] = test system: P. gingivalis (DSM 20709); assay: Growth inhibition assay; type: cell-based, Porphyromonas gingivalis; details: 10 µM, MHB, 1 × 10^5 CFU/mL input, anaerobic, OD600 for 144 h
From the text: as §3, with “Difco). Precultures were prepared 24 h before inoculating the working culture at a 1:50 dilution in fresh ColB until OD600 0.5 was reached.” for “Difco).”
To determine the MIC value, broth microdilutions were performed according to the standard protocol with some modifications ([119]). […] […] a plate reader (Biotek) under the normal atmospheric environment or positioned in the anaerobic chamber with double orbital […]

E. coli K12 MG1655 = assay: Growth inhibition assay; type: cell-based, Escherichia coli K12; details: 10 µM, MHB, 1 × 10^5 CFU/mL input, aerobic, 24 h
Method: (§4) Aerobic bacterial culture was conducted with E. coli K12 MG1655 (provided by D. Lee), E. coli Nissle 1917, and S. enterica serovar Typhimurium SL1344 (provided by D. Bumann, Biocenter Basel, Switzerland). The strains were streaked on lysogeny broth plates, incubated o.n. at 37°C and cultured in non-cation-adjusted MHB with aeration at 37°C and 220 rpm constant shaking.
(§5) To determine the MIC value, broth microdilutions were performed according to the standard protocol with some modifications ([119]). An overnight bacterial culture was diluted in a fresh ColB medium and grown to OD600 0.5 (mid-exponential phase). Fusobacteria were then diluted 1:2,500 or 1:250 in fresh MHB to obtain 1 × 10^5 CFU/mL or 1 × 10^6 CFU/mL as indicated. To determine the growth inhibition of P. gingivalis, an o.n. culture grown in BHI+ was diluted 1:1,500 in MHB to obtain 1 × 10^5 CFU/mL. E. coli K12, E. coli Nissle 1917, and S. enterica o.n. cultures grown in MHB were diluted 1:1,800 in fresh MHB to obtain 1 × 10^5 CFU/mL. […] Bacterial growth was monitored by measuring OD600 every 20 min with constant shaking in a plate reader (Biotek) under the normal atmospheric environment or positioned in the anaerobic chamber with double orbital shaking every 20 min prior to each measurement with 237 cpm at 37°C for 120 h.

E. coli Nissle 1917 = assay: Growth inhibition assay; type: cell-based, Escherichia coli Nissle 1917; details: 10 µM, MHB, 1 × 10^5 CFU/mL input, aerobic, 24 h
Method: as §4, §5

| Substance | Bactericidal effect (viable cells, CFU) on FNN23 [1] | Growth inhibition of FNA [2] | Growth inhibition of FNV [3] | Growth inhibition of FPE [4] | Growth inhibition of P. gingivalis [5] | Growth inhibition of E. coli K12 (E. coli K12 MG1655) | Growth inhibition of E. coli Nissle 1917 (E. coli Nissle 1917) |
| --- | --- | --- | --- | --- | --- | --- | --- |
| (RXR)4XB-GACATAATTGT [FUS79, non-targeting (RXR)4XB-PNA 11-mer control, (RXR)4XB-…] | no visible CFUs detected on the agar plate after 96 h | inhibited the growth | inhibited the growth of all strains, except FNV | inhibited the growth | no growth inhibition | no growth inhibition | no growth inhibition |
| RXRRXRRXRRXRXB [PNAscr] | no bactericidal effect | growth retardation compared with the water control | growth retardation compared with the water control | growth retardation compared with the water control | no growth inhibition | no growth inhibition | no growth inhibition |
